Results on one molecule are retold here after US20250018002A1, “Gap Junction Modulators and Their Use for the Treatment of Age-Related Macular Degeneration” (Breye Therapeutics APS, priority 2021, published 2025).

The test system of series [1] is Human retinal pigment epithelial cells (ARPE-19). Kind of series: Tight junction organization rate (TiJOR), anti-ZO-1 immunocytochemistry in stressed ARPE-19 monolayers. The following applies: danegaptide 100 nM, 24 h pre-treatment, then 48 h 30 mM glucose + sublethal tBHP; n=13-16. The class given is cell-based. On the procedure: For immunocytochemistry, ARPE-19 cells were grown to confluency in chamber slides for 72 h. Cells were then be pre-treated with Danegaptide (DGP; 100 nM) or vehicle control for 24 h. Subsequently, cells were challenged with a combination of sublethal oxidative stress (250 μM tert-butyl hydroperoxide; Millipore Sigma, St. Louis, MO) and hyperglycemia (30 mM glucose; Millipore Sigma, St. Louis, MO) for 48 h, in the continued presence of 100 nM DGP or vehicle.
Cells were labelled with anti-ZO-1 antibody (mouse anti-human 70-1, […], cat #339100, Invitrogen, Thermo Fisher Scientific, Carlsbad, CA) in antibody solution (3% normal goat serum, 1% bovine serum albumin, 0.5% Triton X-100, 0.05% sodium azide in 0.1 M Phosphate buffer pH 7.4) for 2 h at room temperature. […]
The tight junction organization rate (TiJOR) was calculated from confocal images, as described previously (Terryn et al., 2013). […]
Tight junction organization was assessed by immunocytochemistry using anti-zonula occludens 1 (ZO-1) immunostaining (bottom images of FIG. 2; that is, FIG. 2B), a major component of Tight Junctions that binds the cytoplasmic domain of both the Gap Junction transmembrane protein, Cx43, and the TJ transmembrane proteins, occludin(s) and claudin(s). The Tight Junction organization index (TiJOR) was calculated according to Terryn et al., 2013 and measures the degree of TJ dependent cell-cell coupling.

In series [2] the test system is STZ-induced DR in the Brown Norway rat. Kind of series: PAS staining of trypsin-digested retinal flat mounts: pericytes, pericyte ghosts, acellular capillaries. The class given is in vivo. The following applies: week 9 after STZ. As for the experimental part: (§1) Diabetes was induced in the Brown Norway rats (aged 9-10 weeks) by a single dose of streptozotocin (STZ; 65 mg/kg. Sigma) in 10 mM sodium citrate buffer, pH 4.5. After the STZ injection, rats were placed in their cages with ad libitum food and 10% (w/v) sucrose solution in tap water for 48 h. The next morning, 5% glucose (1 ml) was injected intraperitoneally or subcutaneously to all induced rats. Four days after the first STZ injection, the success of the induction was monitored by measuring the blood glucose levels from the saphenous vein. The induction of diabetes was considered successful when the blood glucose values measured by the rapidmeter were equal or higher than 16 mmol/l (288 mg/dl). Animals that were not diabetic based on this criterion 96 h after the first STZ injection received a second STZ injection.
(§2) The selected rats were monitored for blood glucose levels and animal health for 6 weeks, and then treated with weekly intravitreal (IVT) injections of vehicle or test compounds for three weeks for a total of 3× IVT eye injections per eye per animal.
For IVT treatment administration, the animals were anesthetized animals, placed under a stereoscope (Leica Microsystems), and a drop of iodine was applied on the cornea and allowed to spread evenly (Minims Povidone lodine 5%, Bausch & Lomb). […]
Four to six individual images obtained from a central area, and from a peripheral area of the retinal vasculature were acquired using a Leica Thunder 3D Tissue Imager (Leica Microsystems). The number of acellular capillaries, the number of pericytes and the number of pericyte ghosts were manually counted by an investigator blinded to the experimental group assignment.
Vascular abnormalities and the effect of induction of DR by STZ induction were also assessed by quantification of acellular capillaries, pericytes and pericyte ghosts on trypsin-digested retinal wholemounts. For quantification, 4-15 individual images were quantified for each animal and the data from each image were included in the analysis.
Subsequently, number of pericyte ghosts was quantified.

Series [3] shares this test system. The series can be described thus: SD-OCT retinal thickness in STZ-induced diabetic retinopathy. The following applies: week 9 after STZ. The class given is in vivo. As for the experimental part:
as §1, §2
(§3) For IVT treatment administration, the animals were anesthetized animals, placed under a stereoscope (Leica Microsystems), and a drop of iodine was applied on the cornea and allowed to spread evenly (Minims Povidone lodine 5%, Bausch & Lomb). A small incision in the […] exposing the vitreous chamber was performed using a 30 G needle near the limbus. A microsyringe with a 33G needle (Hamilton Bonaduz AG, Bonaduz) attached was used to inject the compounds into the intravitreal space. The test solution was injected into the intravitreal space for 10 s, the needle was kept in place for additional 30 s before being removed to avoid the reflux of the compound. Chloramphenicol ointment was applied after the injection (Oftan Chlora, Santen Oy). The different treatments were administered three times by bilateral intravitreal administration of a volume of 5 μl at weeks six, seven, and eight after STZ induction.
Anesthetized rats were imaged with SD-OCT (Envisu R2200. Bioptigen Inc./Leica Microsystems) retinal scan at week nine as shown in FIG. 5C. The scanned area covers a 2.4×2.4 mm^2 of the retina centred around the optic nerve. Each scan is composed of 100 B Scans each one composed of 1000 A Scans. SD-OCT was performed on both eyes at week nine after DR induction prior to sacrifice and sampling.
The retinal thickness at week nine was analyzed by a convolutional neural network based on U-net architecture using transfer learning approach. The resulting segmentation masks were used to measure the layer thickness in each pixel-width column, i.e. a-scan, resulting in 1000 measuring points for each layer per one b-scan. Only measuring points that passed the automatic quality control criteria set were used in the calculations. The thickness results were presented as SD-OCT measurements of the inner retina, including the nerve ganglion cell layer, inner plexiform and inner nuclear layers; and the outer retina, including the outer plexiform layer, outer nuclear layer, inner and outer segment, and RPE/choroid. […] See FIGS. 5, 7 and 8 for the results of SD-OCT.
SD-OCT scans were taken at week nine prior to sampling. The retinal scans were segmented, and the thickness was analyzed by a convolutional neural network algorithm.
Outer retinal thickness was quantified from SD-OCT images from 24 locations to generate a mean thickness of outer retinal thickness. Outliers were removed using the GROUT method (Q=1%), leading to the removal of a total of 5 outliers (naïve: 0, STZ+Vehicle: 1; STZ+AF564: 1; STZ+Danegaptide: 1; STZ+AF564+Danegaptide: 2).
SD-OCT scans were taken at week nine prior to sampling. Retinal scans were segmented and the thickness was analyzed by a convolutional neural network algorithm. Inner retinal thickness was analyzed by region (FIG. 8).

In series [4] the test system is Brown Norway rats. The series can be described thus: Tolerability, macroscopic ophthalmic examinations after IVT injections. The class given is in vivo. As to conditions: bilateral IVT 5 μl, three weekly injections. As for the experimental part:
as §3
STZ-induced cataracts are common in this model and developed moderate severity by the end of the study (FIG. 4). All test articles were well-tolerated, and no signs of ocular toxicity were identified by macroscopic ophthalmic examinations. Test articles exerted no differential effects on cataract development (FIG. 4).

The subject of series [5] is kidney epithelial cells. As to conditions: Squires et al., 2021; cited from earlier work.
Series [6] relates to STZ-induced DR in the Brown Norway rat. The series can be described thus: Evans Blue retinal extravasation (vascular leakage) in STZ-induced diabetic retinopathy. As to conditions: week 9 after STZ, 3 weekly IVT injections. The class given is in vivo. On the procedure: as §1, with “Animals that were not diabetic based on this criterion 96 h after the first STZ injection received a second STZ injection.” left out
The selected rats were monitored for blood glucose levels and animal health for 6 weeks, and then treated with weekly intravitreal (IVT) injections of vehicle or test compounds for three weeks for a total of 3× IVT eye injections per eye per animal. […]
Retinas were homogenized in formamide in a 1:10 ratio (w/v) and incubated overnight at +70°. […] Absorbance (λ=620 nm) of the samples was measured using a plate reader (Cytation 3, BioTek Instruments Inc., Winooski, VT) and the concentration of Evans Blue in each sample was calculated against a standard curve of Evans Blue and normalized to tissue weight. […]

[7] abbreviates: 3 weekly IVT injections, SD-OCT.
Where [8] appears, read: 3 weekly IVT injections, average per group.

Entries after “also recorded” stand apart in the source; their conditions may differ.

Consider `NCC(=O)N1C[C@H](NC(=O)c2ccccc2)C[C@H]1C(=O)O` [Danegaptide, (2S,4R)-1-(2-aminoacetyl)-4-benzoylamino-pyrrolidine-2-carboxylic acid], for which the “Protection against loss of Tight Junction organization (TiJOR)” value in series [1] is listed as “completely protected; also recorded: partial protection”. Besides, the “Effect on number of pericyte ghosts vs STZ+Vehicle” value in series [2] (One-Way ANOVA, Dunnett's test) was “statistically significant reduction”. The “Acellular capillaries (number)” value in series [2] (count per image, STZ+Vehicle 22 ± 1) turned out to be 20 ± 1. The “Pericytes (sum of the number of pericytes and pericyte ghosts)” value in series [2] (count per image, STZ+Vehicle 52 ± 2) amounted to 49 ± 2. In series [3] (setting [7]), the “Total retinal thickness, IN” value is listed as 206 ± 1.8 μm; the “Total retinal thickness, IT” value worked out at 217 ± 1.6 μm; the “Total retinal thickness, SN” value is recorded as 205 ± 1.9 μm; the “Total retinal thickness, ST” value was determined as 210 ± 2.6 μm. In addition, the “Total retinal thickness, Whole Retina” value in series [3] (setting [7]) was found to be 212 ± 2.2 μm. For the same molecule, in series [3] (setting [8]), the “Outer retinal thickness, IN (inferior-nasal)” value was found to be 121.17 μm; the “Outer retinal thickness, IT (inferior-temporal)” value is 123.61 μm; the “Outer retinal thickness, SN (superior-nasal)” value came out at 117.36 μm; the “Outer retinal thickness, ST (superior-temporal)” value was 118.14 μm. The “Effect on inner retinal thickness” value in series [3] (regional analysis ST, SN, IT, IN) was “No biologically relevant effects”. The “Outer retinal thickness (mean)” value in series [3] (weekly IVT injections at weeks 6, 7, 8, mean±S.E.M., STZ+Vehicle 123.8±0.9, naïve 119.8±0.5) came out at 119.7±0.8 μm. In series [4], the “Tolerability / ocular toxicity” value is given as “well tolerated”. Besides, the “ATP leakage from kidney epithelial cells” value in series [5] was “can reduce ATP leakage”. Besides, the “Reduction of EB extravasation vs STZ+Vehicle” value in series [6] is recorded as 68.9%. For the same molecule, the “Evans Blue (EB) extravasation, % of STZ+Vehicle” value in series [6] (normalized to STZ+Vehicle, mean±S.E.M.) came out at 31.1±5.3%.
